The values below come from patent EP1808181A1, “Polysaccharide-cyclodextrin conjugates” (B. BRAUN MELSUNGEN AG, priority 2006, dated 2007).

One may read the solubility (thermodynamic) as solubility found after equilibrating the solid with the medium.

For series [1], the system named is Humane Erythrozyten. The series can be described thus: Haemolysis of washed human erythrocytes by cyclodextrin derivatives. In kind it is cell-based, menschlicher. As to conditions: washed human erythrocytes (0,25%), 10 mM isotonic phosphate buffer pH 7,4, 37°C/30 min; read graphically against complete lysis in water; read-out: Cyclodextrin-Konzentration (frei bzw.gebunden) zur halb-maximalen Hämolyse. On the procedure:
(§1) Die Hämolyserate der in Tabelle III aufgeführten Cyclodextrin-Derivate wurde wie folgt bestimmt. Humane Erythrozyten wurden aus Citratblut durch Zentrifugation gewonnen (1000 x g / 10 Minuten), in 10 mM isotonem Phosphatpuffer (pH 7,4) aufgenommen und dreimal gewaschen und in diesem Puffer auf einen Hämatokrit von 5% eingestellt. Aliquote der gewaschenen Erythrozyten (0,1 ml) wurden zu 4 ml der in der Tabelle 3 aufgelisteten Cyclodextrin-Derivate (jeweils 5 unterschiedliche Konzentrationen) zugegeben, gemischt und 30 Minuten bei 37°C und gelegentlichem leichten Schütteln inkubiert. Nach abermaliger Zentrifugation (1000 x g / 10 Minuten) wurde das freigesetzten Hämoglobin im Überstand spektralphotometrisch bei 543 nm bestimmt. Die Hämolyseraten wurde aus den erhaltenen Absoptionswerten im Vergleich mit einer kompletter […] in Wasser ermittelt und die Cyclodextrin- Konzentrationen mit halbmaximaler Hämolyse graphisch ermittelt.
(§2) Tabelle III : Hämolyse gewaschener menschlicher Erythrozyten (0,25%) in 10 mM isotonem Phosphatpuffer (pH 7,4) bei 37°C/30 Minuten durch Cyclodextrin-Derivate

Series [2] in a line: physchem. As to conditions: water.
Series [3] can be described thus: Haemolysis of washed human erythrocytes by cyclodextrin derivatives. In kind it is cell-based, menschlicher. The note with it: washed human erythrocytes (0,25%), 10 mM isotonic phosphate buffer pH 7,4, 37°C/30 min; read graphically against complete lysis in water; read-out: Cyclodextrin-Konzentration (frei bzw.gebunden) zur halb-maximalen Hämolyse. The protocol: as §1, §2

Values after ≈ are worked out from the molar mass of the structure shown.

2-HP-β-Cyclodextrin: in series [1], the HC50 worked out at 10 mM.

For `CC(=O)[C@H]1CC[C@H]2[C@@H]3CCC4=CC(=O)CC[C@]4(C)[C@H]3CC[C@]12C` [Progesteron], the solubility (thermodynamic) at 72 h in series [2] is 15 µg/mL (≈ 47.7 µM).

For the compound `OC[C@H]1O[C@@H]2O[C@H]3[C@H](O)[C@@H](O)[C@@H](O[C@H]4[C@H](O)[C@@H](O)[C@@H](O[C@H]5[C@H](O)[C@@H](O)[C@@H](O[C@H]6[C@H](O)[C@@H](O)[C@@H](O[C@H]7[C@H](O)[C@@H](O)[C@@H](O[C@H]8[C@H](O)[C@@H](O)[C@@H](O[C@H]1[C@H](O)[C@H]2O)O[C@@H]8CO)O[C@@H]7CO)O[C@@H]6CO)O[C@@H]5CO)O[C@@H]4CO)O[C@@H]3CO` [β-Cyclodextrin], the HC50 at 0.5 h in series [3] is 5 mM.

With α-Cyclodextrin, the HC50 in series [1] came to 11 mM.

Consider γ--Cyclodextrin, for which the HC50 in series [1] was 30 mM.
